From patent CN102488699A, “芍药苷在制备防治肺纤维化药物中的应用” (China Pharmaceutical University, priority 2011, dated 2012)

What was measured:
[1] = tested on: lung tissue of pulmonary fibrosis mice [肺纤维化小鼠肺组织]; test: Effect on collagen deposition in lung tissue of pulmonary fibrosis mice, Masson staining (Fig. 2); format: in vivo, mouse; settings: intragastric, once daily, day 21, vs model group
[2] = tested on: smooth muscle actin (α-SMA) [平滑肌肌动蛋白(α-SMA)]; test: Effect on α-SMA expression in lung tissue of pulmonary fibrosis mice, Western blot (Fig. 4); format: in vivo, mouse; settings: intragastric, once daily, day 21
[3] = tested on: pulmonary fibrosis mice [肺纤维化小鼠]; test: Effect on survival rate of mice with bleomycin-induced pulmonary fibrosis; format: in vivo, mouse; settings: intragastric, once daily from day 1, model group 50.0%; for survival rate: day 21 after bleomycin (5 mg/kg intratracheal)
[4] = tested on: bleomycin model mice [博来霉素模型小鼠]; test: Effect on degree of alveolitis and pulmonary fibrosis in bleomycin model mice (Table 1); format: in vivo, mouse; settings: intragastric, once daily, day 21, n=3
[5] = tested on: TGF-β1 protein [TGF-β1蛋白]; test: Effect on TGF-β1 protein expression in lung tissue of pulmonary fibrosis mice, Western blot (Fig. 5); format: in vivo, mouse; settings: intragastric, once daily, day 21
[6] = tested on: hydroxyproline in lung tissue of pulmonary fibrosis mice [肺纤维化小鼠肺组织中羟脯氨酸]; test: Effect on hydroxyproline content in lung tissue of pulmonary fibrosis mice (Fig. 3); format: in vivo, mouse
[7] = tested on: lung tissue of pulmonary fibrosis mice [肺纤维化小鼠肺组织]; test: Effect on lung tissue lesions of pulmonary fibrosis mice, HE staining (Fig. 1); format: in vivo, mouse; settings: intragastric, once daily, day 21, vs model group
[8] = tested on: lipopolysaccharide-induced acute lung injury in mice [脂多糖引起的小鼠急性肺损伤]; settings: intraperitoneal injection, Inflamm Res 2011,60(10):981-990; cited from earlier work

## CC(=O)OCC(=O)[C@@]1(O)CC[C@H]2[C@@H]3CCC4=CC(=O)C=C[C@]4(C)[C@H]3C(=O)C[C@@]21C [泼尼松, 醋酸泼尼松, reference compound]
[1]; 6 mg/kg
  collagen deposition and pulmonary fibrosis, Masson staining: 肺组织结构较完整清晰,肺泡间隔轻度增厚,胶原沉积减少,肺纤维化程度明显减轻
[2]; 6 mg/kg
  α-SMA content in lung tissue: 显著降低
[3]; 6 mg/kg, day 21 after bleomycin
  survival rate (in words): 与模型组相近
[4]; 6 mg/kg
  alveolar inflammation: 抑制肺泡炎症
  degree of pulmonary fibrosis: 显著减低肺纤维化程度
[5]; 6 mg/kg
  TGF-β1 expression in lung tissue: 显著降低
[6]; Mus musculus, po, 504 h, read-out: inhibition rate of hydroxyproline content in lung tissue
  inhibition at 6 mg/kg: 31.2%
[7]; 6 mg/kg
  degree of alveolitis, HE staining: 肺泡炎程度明显减轻
  lung tissue lesions, HE staining: 肺组织结构较完整清晰,少量炎性细胞浸润及成纤维细胞增生,病变程度较模型组轻

## C[C@@]12C[C@@]3(O)O[C@@H](O1)[C@]1(COC(=O)c4ccccc4)[C@H]3C[C@@]12O[C@@H]1O[C@H](CO)[C@@H](O)[C@H](O)[C@H]1O [芍药苷, Paeoniflorin]
[1]; 100 mg/kg
  collagen deposition and pulmonary fibrosis, Masson staining: 肺组织结构较完整清晰,肺泡间隔轻度增厚,胶原沉积减少,肺纤维化程度明显减轻
[2]; 100 mg/kg
  α-SMA content in lung tissue: 显著降低
[3]; 50 mg/kg
  survival rate: 87.5%
[3]; 100 mg/kg
  survival rate: 75.0%
[4]; 100 mg/kg
  alveolar inflammation: 抑制肺泡炎症
  degree of pulmonary fibrosis: 显著减低肺纤维化程度
[5]; 100 mg/kg
  TGF-β1 expression in lung tissue: 显著降低
[6]; 50, 100 mg/kg, intragastric, once daily, day 21
  inhibition of collagen synthesis (in words): 剂量依赖性抑制胶原的合成
[6]; Mus musculus, po, 504 h, 50 mg/kg, intragastric, once daily, day 21, read-out: inhibition rate of hydroxyproline content in lung tissue
  inhibition at 50 mg/kg: 20.6%
[6]; Mus musculus, po, 504 h, 100 mg/kg, intragastric, once daily, day 21, read-out: inhibition rate of hydroxyproline content in lung tissue
  inhibition at 100 mg/kg: 31.4%
[7]; 100 mg/kg
  degree of alveolitis, HE staining: 肺泡炎程度明显减轻
  lung tissue lesions, HE staining: 肺组织结构较完整清晰,少量炎性细胞浸润及成纤维细胞增生,病变程度较模型组轻
[8]
  protective effect on acute lung injury: 具有明显的保护作用
